Results taken from ChEMBL document CHEMBL1201862, “PubChem BioAssay data set” (2004).
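How tested: cells in 96-well plates exposed to compound for 48 hours at five concentrations. GI50: concentration for 50% inhibition of growth.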 Calls of active or inactive are those of the source. No stated cut-off is given here; in the data, active = GI50 up to about 1.1 µM and inactive = higher.

Legend:
Assay in all cases: NCI tumour cell line growth inhibition, 48 h
OVCAR-4 = system: OVCAR-4
Hs-578T = system: Hs-578T
SF-295 = system: SF-295
NCI/ADR-RES = system: NCI/ADR-RES
SK-MEL-2 = system: SK-MEL-2
K562 = system: K562
LOX IMVI = system: LOX IMVI
SN12C = system: SN12C
HOP-92 = system: HOP-92
MDA-MB-435 = system: MDA-MB-435
OVCAR-3 = system: OVCAR-3
SW-620 = system: SW-620
CCRF-CEM = system: CCRF-CEM
HL-60 = system: HL-60
CAKI-1 = system: CAKI-1
U-251 = system: U-251
NCI-H460 = system: NCI-H460
MDA-N = system: MDA-N
HCC 2998 = system: HCC 2998
A498 = system: A498

SMILES | GI50 (OVCAR-4) | GI50 (Hs-578T) | GI50 (SF-295) | GI50 (NCI/ADR-RES) | GI50 (SK-MEL-2) | GI50 (K562) | GI50 (LOX IMVI) | GI50 (SN12C) | GI50 (HOP-92) | GI50 (MDA-MB-435) | GI50 (OVCAR-3) | GI50 (SW-620) | GI50 (CCRF-CEM) | GI50 (HL-60) | GI50 (CAKI-1) | GI50 (U-251) | GI50 (NCI-H460) | GI50 (MDA-N) | GI50 (HCC 2998) | GI50 (A498)
Cc1ccc(O)c(C2=CC(c3cccc(Br)c3)SC(=N)N2)c1 (stereo not drawn) | 28.9 µM (inactive) | 20.4 µM (inactive) | 21.2 µM (inactive) | 27.9 µM (inactive) | 18.2 µM (inactive) | 24.5 µM (inactive) | 18.5 µM (inactive) | 20.8 µM (inactive) | 19 µM (inactive) | 18.7 µM (inactive) | 39.5 µM (inactive) | 28.4 µM (inactive) | 25.6 µM (inactive) | 29 µM (inactive) | 28.4 µM (inactive) | 17.5 µM (inactive) | 20.5 µM (inactive) | 19.7 µM (inactive) | – | –
Cc1cccc(Nc2nc3ccccc3nc2NS(=O)(=O)c2ccccc2)c1 | 2.14 µM (inactive) | 33 µM (inactive) | 14.5 µM (inactive) | 20 µM (inactive) | 14.3 µM (inactive) | 72.1 µM (inactive) | 45.4 µM (inactive) | 22.2 µM (inactive) | 11 µM (inactive) | 46.6 µM (inactive) | 19 µM (inactive) | 29.6 µM (inactive) | 18.2 µM (inactive) | 13.8 µM (inactive) | 44.1 µM (inactive) | 14.6 µM (inactive) | 15.6 µM (inactive) | 42.9 µM (inactive) | 0.721 µM (active) | –
CCNc1ccc2c(c1)Cc1ccccc1-2 | 75.3 µM (inactive) | 65.2 µM (inactive) | 47.6 µM (inactive) | > 100 µM (inactive) | 56.1 µM (inactive) | 27.6 µM (inactive) | 32.3 µM (inactive) | 64 µM (inactive) | 21.2 µM (inactive) | 49.5 µM (inactive) | 29 µM (inactive) | 83.6 µM (inactive) | > 100 µM (inactive) | 37.3 µM (inactive) | 27.2 µM (inactive) | 44.3 µM (inactive) | 18 µM (inactive) | – | 9.71 µM (inactive) | 43.3 µM (inactive)
Cc1nc(C)c(C(=O)NNC(N)=S)cc1C(=O)NNC(N)=S | > 100 µM (inactive) | > 100 µM (inactive) | > 100 µM (inactive) | > 100 µM (inactive) | > 100 µM (inactive) | > 100 µM (inactive) | > 100 µM (inactive) | > 100 µM (inactive) | > 100 µM (inactive) | > 100 µM (inactive) | > 100 µM (inactive) | > 100 µM (inactive) | – | > 100 µM (inactive) | > 100 µM (inactive) | > 100 µM (inactive) | > 100 µM (inactive) | > 100 µM (inactive) | > 100 µM (inactive) | –
Cc1c(-c2ccc(O)cc2)n(CCCCCCNCCOC(=O)NCCCc2ccc(N(CCCl)CCCl)cc2)c2ccc(O)cc12 | 1.9 µM (inactive) | 1.98 µM (inactive) | 2.21 µM (inactive) | – | 10.6 µM (inactive) | 2.67 µM (inactive) | 1.5 µM (inactive) | 2.4 µM (inactive) | – | 1.69 µM (inactive) | 2.16 µM (inactive) | 2.15 µM (inactive) | 1.67 µM (inactive) | 1.44 µM (inactive) | 11.1 µM (inactive) | 3.07 µM (inactive) | 1.52 µM (inactive) | 1.73 µM (inactive) | 1.86 µM (inactive) | 14.9 µM (inactive)
COC(=O)/C=C(/C=C1/C(C#N)=C(N)N(c2ccc(Cl)cc2)C1(C)/C(=C/C(=O)OC)C(=O)OC)C(=O)OC (stereo not drawn) | > 100 µM (inactive) | – | 53.1 µM (inactive) | 53 µM (inactive) | > 100 µM (inactive) | 20.6 µM (inactive) | 23.9 µM (inactive) | 35.8 µM (inactive) | 42.3 µM (inactive) | 52.4 µM (inactive) | 81.8 µM (inactive) | 32.7 µM (inactive) | 27 µM (inactive) | 15.7 µM (inactive) | > 100 µM (inactive) | 41.4 µM (inactive) | 40.6 µM (inactive) | 45.1 µM (inactive) | 82.6 µM (inactive) | 49.5 µM (inactive)
CC(CCCCNC(=O)OC(C)(C)C)NC(=O)NC(C)CCCCNC(=O)OC(C)(C)C (stereo not drawn) | 81.5 µM (inactive) | > 100 µM (inactive) | 63.5 µM (inactive) | > 100 µM (inactive) | – | 83.2 µM (inactive) | > 100 µM (inactive) | > 100 µM (inactive) | > 100 µM (inactive) | > 100 µM (inactive) | 57 µM (inactive) | > 100 µM (inactive) | 6.21 µM (inactive) | 39 µM (inactive) | > 100 µM (inactive) | > 100 µM (inactive) | > 100 µM (inactive) | 72.6 µM (inactive) | – | > 100 µM (inactive)
O=[N+]([O-])c1cccc(/C=N/NC2=CS(=O)(=O)C=C2)c1 | > 100 µM (inactive) | > 100 µM (inactive) | > 100 µM (inactive) | > 100 µM (inactive) | > 100 µM (inactive) | > 100 µM (inactive) | > 100 µM (inactive) | > 100 µM (inactive) | > 100 µM (inactive) | > 100 µM (inactive) | > 100 µM (inactive) | > 100 µM (inactive) | > 100 µM (inactive) | 42.6 µM (inactive) | > 100 µM (inactive) | > 100 µM (inactive) | > 100 µM (inactive) | > 100 µM (inactive) | – | > 100 µM (inactive)
NCCCN(CCCN)CCc1cn(C(=O)c2ccccc2)cn1 | 4.93 µM (inactive) | 11.4 µM (inactive) | 12.7 µM (inactive) | 14.4 µM (inactive) | 9.1 µM (inactive) | 3.61 µM (inactive) | 11.6 µM (inactive) | 6.41 µM (inactive) | 4.05 µM (inactive) | 5.73 µM (inactive) | 2.69 µM (inactive) | 10.2 µM (inactive) | 2.17 µM (inactive) | 3.84 µM (inactive) | 4.46 µM (inactive) | 14.4 µM (inactive) | 15.7 µM (inactive) | 9.1 µM (inactive) | 4.52 µM (inactive) | –
CN1CCN(c2ccc3nc(-c4cc(O)c5c(nc(CO)n5C)c4O)[nH]c3n2)CC1 | 19.5 µM (inactive) | > 100 µM (inactive) | > 100 µM (inactive) | > 100 µM (inactive) | 11 µM (inactive) | 28.8 µM (inactive) | 17.1 µM (inactive) | 16.7 µM (inactive) | > 100 µM (inactive) | 18.7 µM (inactive) | 26.1 µM (inactive) | 39.2 µM (inactive) | 18.8 µM (inactive) | 16.4 µM (inactive) | > 100 µM (inactive) | 15.1 µM (inactive) | 55.6 µM (inactive) | 34.2 µM (inactive) | 39.9 µM (inactive) | –
CSCCC(C(=O)O)N(C)C (stereo not drawn) | > 100 µM (inactive) | > 100 µM (inactive) | > 100 µM (inactive) | > 100 µM (inactive) | > 100 µM (inactive) | 41.9 µM (inactive) | > 100 µM (inactive) | > 100 µM (inactive) | > 100 µM (inactive) | > 100 µM (inactive) | > 100 µM (inactive) | > 100 µM (inactive) | > 100 µM (inactive) | > 100 µM (inactive) | > 100 µM (inactive) | > 100 µM (inactive) | > 100 µM (inactive) | > 100 µM (inactive) | – | > 100 µM (inactive)
CCSC1=N/C(=C\c2ccco2)C(Nc2ccc(C)cc2)=N1 | – | > 100 µM (inactive) | > 100 µM (inactive) | > 100 µM (inactive) | > 100 µM (inactive) | > 100 µM (inactive) | > 100 µM (inactive) | > 100 µM (inactive) | > 100 µM (inactive) | > 100 µM (inactive) | > 100 µM (inactive) | > 100 µM (inactive) | > 100 µM (inactive) | – | – | > 100 µM (inactive) | – | > 100 µM (inactive) | – | > 100 µM (inactive)
O=C(O)c1cc2ccccc2c(/N=N/c2ccccc2)c1O | > 100 µM (inactive) | 6.82 µM (inactive) | 12.4 µM (inactive) | 27.2 µM (inactive) | > 10 µM (inactive) | 36.8 µM (inactive) | – | 23.3 µM (inactive) | 55.3 µM (inactive) | 15.1 µM (inactive) | 26.2 µM (inactive) | 23.8 µM (inactive) | 38.5 µM (inactive) | 10 µM (inactive) | 35.6 µM (inactive) | 12.8 µM (inactive) | – | 19.1 µM (inactive) | – | 33.7 µM (inactive)
CCCCOC(=O)C(NC(C(=O)OCCCC)c1cc(C(C)(C)C)c(O)c(C(C)(C)C)c1)c1cc(C(C)(C)C)c(O)c(C(C)(C)C)c1 (stereo not drawn) | > 100 µM (inactive) | > 100 µM (inactive) | > 100 µM (inactive) | > 100 µM (inactive) | > 100 µM (inactive) | 56.9 µM (inactive) | > 100 µM (inactive) | > 100 µM (inactive) | 75 µM (inactive) | > 100 µM (inactive) | > 100 µM (inactive) | > 100 µM (inactive) | 73.8 µM (inactive) | > 100 µM (inactive) | > 100 µM (inactive) | > 100 µM (inactive) | – | > 100 µM (inactive) | – | > 100 µM (inactive)
CN1/C(=C/C=C/C=C/C=C2C(=O)c3ccccc3C2=O)C(C)(C)c2ccccc21 | 75.3 µM (inactive) | 29.9 µM (inactive) | 35.5 µM (inactive) | 76.2 µM (inactive) | 20.3 µM (inactive) | 13.3 µM (inactive) | 40.3 µM (inactive) | > 100 µM (inactive) | 15.7 µM (inactive) | 54.5 µM (inactive) | 20 µM (inactive) | > 100 µM (inactive) | > 100 µM (inactive) | 36.6 µM (inactive) | 44 µM (inactive) | – | 53.5 µM (inactive) | 35.6 µM (inactive) | – | 23.8 µM (inactive)
